Test results published in patent US5665367A, “Skin care compositions containing naringenin and/or quercetin and a retinoid” (Chesebrough-Pond's USA Co., Division of Conopco, Inc., priority 1996, dated 1997).
Where two headings read alike, the source gives them in different places.

Columns and labels:
[1] = tested on: transglutaminase I (TG1) in human keratinocytes; assay: Transglutaminase assay (ELISA based TGase I assay) normalized to DNA in keratinocytes, Examples 2-4; format: cell-based; settings: for inhibition of keratinocyte differentiation compared with retinoic acid: summary of the studies
Procedure: (§1) Human keratinocytes, isolated from neonatal foreskin by trypsin treatment were grown in Dulbecco Modification Eagle (DME) Hams F12 (1:1) medium/10% fetal calf serum in the presence of irradiated 3T3 mouse fibroblasts for establishing dividing keratinocyte colonies. Cells were grown under the above condition until their second passage and kept frozen for future use. Frozen second passage keratinocytes were thawed and plated into the above medium and grown for five days before they were switched to a serum-free MCDB 153-based medium keratinocyte growth medium (KGM) from Clonetics Corporation, San Diego, Calif., containing 0.15 mM Ca, or keratinocyte serum-free media (KSFM) from GIBCO containing 0.09 mM Ca). On day 7, when the cells were 80-90% confluent, they were trypsinized and plated in the serum-free medium for the various experiments.
(§2) During the process of terminal differentiation in the epidermis, a 15 nm thick layer of protein, known as the cornified envelope (CE) is formed on the inner surface of the cell periphery. The CE is composed of numerous distinct proteins which have been cross-linked together by the formation of N^ε -(γ-glutamyl) lysine isodipeptide bonds catalyzed by the action of at least two different transglutaminases (TGases) expressed in the epidermis. TGase 1 is expressed in abundance in the differentiated layers of the epidermis, especially the granular layer, but is absent in the undifferentiated basal epidermis. Thus TGase I is a useful marker of epidermal keratinocyte differentiation with high TGase I levels indicating a more differentiated state. An ELISA based TGase I assay, using a TGase I antibody, was used to assess the state of differentiation of the cultured keratinocytes in the examples that follow.
For Examples 2-4, the following procedure was used:
Keratinocytes (cultured as described above) were plated in 96 well plates at a density of 3,000 cells per well in 200 μl of cell culture media. After incubation for four days, the media was changed to media containing test compounds (six replicates per test). The cells were cultured for a further 72 hours after which time the media was aspirated and the plates stored at -70° C. After the plates were removed from the freezer, the cells were further freezed fractured by freezing and thawing and then washed 3x with PBS. The cells were incubated for one hour at room temperature (R/T) with TBS/5% BSA buffer. Cells were then incubated with 100 μl of monoclonal anti-human transglutaminase (IgG) mouse antibody (primary antibody) obtained from Biomedical Technologies Inc. diluted 1:2000 in TBS/1% BSA buffer for two hours at 37° C., and then rinsed six times with wash buffer (TBS/1% BSA/0.05% Tween-20). Cells were next incubated with 100 μl of Fab fragment, peroxidase conjugated anti-mouse IgG antibody (secondary antibody) from Amersham diluted 1:4,000 in wash buffer for two hours at 37° C. and then rinsed three times with wash buffer and three times with PBS. Cells were incubated with substrate solution (4mg o-phenylene diamine and 3.3 μl 30% H2 O2 in 10mL 0.1M citrate buffer, pH 5.0) for five minutes at R/T and in darkness (under aluminum foil). The reaction was stopped by the addition of 50 μl N H2 SO4. The absorbance of samples was read at 492 nm in the plate reader. Out of the six replicates, four were treated with both antibodies, two were treated only with the secondary antibody (i.e., to determine the background binding of the enzyme conjugated antibody). Transglutaminase I levels were determined by subtracted background from the readings from each treatment and determining the mean s.d. for the replicates exposed to both antibodies.
(§3) The level of TGase-1 detected after treatment of the cells could be influenced by cell number, i.e., the greater the number of cells the greater the level of TGase-1 detected. The level of TGase-1 was normalized to DNA content of the cells in the same well thus eliminating variation due to differences in cell number. […]

[2] = tested on: transglutaminase (TGase I) in human keratinocytes; assay: Transglutaminase assay (ELISA based TGase I assay) normalized to DNA in keratinocytes, Example 1; format: cell-based; settings: for mean TGase/DNA × 10^-4 ± s.d / activity at 0.25 µM / activity at 0.025 µM / activity at 0.0025 µM: 72 hours, Table 1, n = 3; for decrease in transglutaminase level, dose dependence: 2.5×10^-9 to 2.5×10^-7 M; for activity at 0.25 µM / activity at 0.025 µM / activity at 0.0025 µM: Homo sapiens, Keratinocyte, read-out: mean TGase/DNA (% control)
Procedure: as §1, §2
For Example 1, the following procedure was used:
Keratinocytes (cultured as described above) were plated in 96 well plates at a density of 3,000 cells per well in 200 μl media. After incubation for four days the media was changed to media containing test compounds (six replicates per test). The cells were cultured for a further 72 hours after which time the media was aspirated and the plates stored at -70° C. Plates were removed from the freezer, and the cells washed with PBS. 100 μl sterile water was added and the cells were freeze fractured by freezing at -70° C. then thawing. The cells were incubated for one hour at room temperature (R/T) with PBS/3% BSA (wash buffer, bovine serum albumin), then rinsed with a fresh aliquot of wash buffer. Cells were incubated with 50 μl of primary antibodies monoclonal anti-human transglutaminase mouse antibody (IgG) obtained from Biomedical Industries diluted 1:2,000 in wash buffer for one hour, 37° C. then rinsed two times with wash buffer. Cells were then incubated with 50 μl of secondary antibody (Fab fragment, peroxidase conjugated anti-mouse IgG obtaining from Amersham) diluted 1:4,000 in wash buffer for one hour at 37° C., then rinsed two times with wash buffer. Cells were incubated with substrate solution (4 mg o-phenylene diamine and 3.3 μl 30% H2 O2 in 10 ml 0.1M citrate buffer pH 5.0) for five minutes, R/T, in darkness (under aluminum foil). The reaction was stopped by the addition of 50 μl N H2 SO4. The absorbance of samples was read at 492 nm in the plate reader. Out of the six replicates, four were treated with both antibodies, two were treated only with the secondary antibody (i.e., to determine background binding of enzyme conjugated Ab). TGase levels were determined by subtracting background from the readings from each treatment and determining mean ±s.d. for the replicates exposed to both Ab.
as §3

[3] = Example 2: 2.5×10^-7 M retinoic acid, 2.5×10^-9 M retinol, 10^-7 M naringenin alone
[4] = Example 3: 2.5×10^-7 M retinoic acid, 2.5×10^-8 M retinyl palmitate, 10^-8 M naringenin alone
[5] = Example 4: 2.5×10^-7 M retinoic acid, 2.5×10^-7 M retinol, 10^-6 M quercetin alone
[6] = 2.5 × 10^-7 M, 72 hour treatment, Table 4 (Example 4), n = 3
[7] = Homo sapiens, Keratinocyte, 72 h, 2.5 × 10^-7 M, 72 hour treatment, Table 4 (Example 4), n = 3, read-out: mean TGase/DNA (% control)

Row | Compound | repression of keratinocyte TG1 level (in words) [1, 3] | repression of keratinocyte TG1 level (in words) [1, 4] | repression of keratinocyte TG1 level (in words) [1, 5] | mean TGase/DNA × 10^-5 ± s.d [1, 6] | activity at 0.25 µM [1, 7] | decrease in transglutaminase level, dose dependence [2] | activity at 0.25 µM ([2]; 2.5 × 10^-7 M) | activity at 0.025 µM ([2]; 2.5 × 10^-8 M) | activity at 0.0025 µM ([2]; 2.5 × 10^-9 M) | inhibition of keratinocyte differentiation compared with retinoic acid [1] | other results
1 | O=C1C[C@@H](c2ccc(O)cc2)Oc2cc(O)cc(O)c21 [Naringenin, naringenin] | no inhibitory effect | small inhibitory effect |  |  |  |  |  |  |  |  | mean TGase/DNA × 10^-5 ± s.d ([1]; 10^-7 M naringenin, 72 hour treatment, Table 2 (Example 2), n = 3): 49.84 ± 2.76 × 10^-5; mean TGase/DNA × 10^-5 ± s.d ([1]; 10^-8 M naringenin, 72 hour treatment, Table 3 (Example 3), n = 3): 45.01 ± 1.90 × 10^-5; activity at 0.1 µM ([1]; Homo sapiens, Keratinocyte, 72 h, 10^-7 M naringenin, 72 hour treatment, Table 2 (Example 2), n = 3, read-out: mean TGase/DNA (% control)): 94%; activity at 0.01 µM ([1]; Homo sapiens, Keratinocyte, 72 h, 10^-8 M naringenin, 72 hour treatment, Table 3 (Example 3), n = 3, read-out: mean TGase/DNA (% control)): 89%
2 | O=c1c(O)c(-c2ccc(O)c(O)c2)oc2cc(O)cc(O)c12 [Quercetin, quercetin] |  |  | only a small inhibitory effect |  |  |  |  |  |  |  | mean TGase/DNA × 10^-5 ± s.d ([1]; 10^-6 M quercetin, 72 hour treatment, Table 4 (Example 4), n = 3): 59.04 ± 3.38 × 10^-5; activity at 1 µM ([1]; Homo sapiens, Keratinocyte, 72 h, 10^-6 M quercetin, 72 hour treatment, Table 4 (Example 4), n = 3, read-out: mean TGase/DNA (% control)): 85%
3 | CC1=C(/C=C/C(C)=C/C=C/C(C)=C/C(=O)O)C(C)(C)CCC1 [Retinoic acid, retinoic acid] | very effective | very effective | effective | 35.91 ± 3.01 × 10^-5 | 52% | in a dose dependant manner decreased transglutaminase I levels | 7% | 55% | 77% |  | mean TGase/DNA × 10^-5 ± s.d ([1]; 2.5 × 10^-7 M RA, 72 hour treatment, Table 2 (Example 2), n = 3): 22.47 ± 2.31 × 10^-5; mean TGase/DNA × 10^-5 ± s.d ([1]; 2.5 × 10^-7 M RA, 72 hour treatment, Table 3 (Example 3), n = 3): 16.31 ± 2.58 × 10^-5; activity at 0.25 µM ([1]; Homo sapiens, Keratinocyte, 72 h, 2.5 × 10^-7 M RA, 72 hour treatment, Table 2 (Example 2), n = 3, read-out: mean TGase/DNA (% control)): 42%; activity at 0.25 µM ([1]; Homo sapiens, Keratinocyte, 72 h, 2.5 × 10^-7 M RA, 72 hour treatment, Table 3 (Example 3), n = 3, read-out: mean TGase/DNA (% control)): 32%; mean TGase/DNA × 10^-4 ± s.d ([2]; 2.5 × 10^-7 M): 0.16 ± 0.11 × 10^-4; mean TGase/DNA × 10^-4 ± s.d ([2]; 2.5 × 10^-8 M): 1.34 ± 0.40 × 10^-4; mean TGase/DNA × 10^-4 ± s.d ([2]; 2.5 × 10^-9 M): 1.87 ± 0.49 × 10^-4; decrease in transglutaminase level, dose dependence ([2]; listed as retinoic acid): dose dependent; effect on keratinocyte differentiation ([2]; all concentrations tested, versus ethanol control, Example 1): decreased keratinocyte differentiation; extent of decrease versus corresponding retinol treatments ([2]; all concentrations tested, Example 1): significantly greater extent
4 | CC1=C(/C=C/C(C)=C/C=C/C(C)=C/CO)C(C)(C)CCC1 [Retinol, retinol] | ineffective |  | ineffective | 61.93 ± 5.18 × 10^-5 | 90% | dose dependent | 47% | 77% | > 100% | significantly less effective than retinoic acid | mean TGase/DNA × 10^-5 ± s.d ([1]; 2.5 × 10^-9 M retinol, 72 hour treatment, Table 2 (Example 2), n = 3): 48.31 ± 5.31 × 10^-5; mean TGase/DNA (% control) ([1]; 2.5 × 10^-9 M retinol, 72 hour treatment, Table 2 (Example 2), n = 3, 0.0025 µM, 4320 min): 91%; activity at 0.0025 µM ([1]; Homo sapiens, Keratinocyte, 72 h, 2.5 × 10^-9 M retinol, 72 hour treatment, Table 2 (Example 2), n = 3, read-out: mean TGase/DNA (% control)): 92%
5 | CCCCCCCCCCCCCCCC(=O)OC/C=C(C)/C=C/C=C(C)/C=C/C1=C(C)CCCC1(C)C [Retinyl palmitate, retinyl palmitate] |  | ineffective |  |  |  |  |  |  |  | significantly less effective than retinoic acid | mean TGase/DNA × 10^-5 ± s.d ([1]; 2.5 × 10^-8 M retinyl palmitate, 72 hour treatment, Table 3 (Example 3), n = 3): 47.32 ± 4.22 × 10^-5; activity at 0.025 µM ([1]; Homo sapiens, Keratinocyte, 72 h, 2.5 × 10^-8 M retinyl palmitate, 72 hour treatment, Table 3 (Example 3), n = 3, read-out: mean TGase/DNA (% control)): 93%
